Measurements from patent US12258332B2, “ASGPR cell surface receptor binding compounds and conjugates” (Lycia Therapeutics, Inc., priority 2021, dated 2025).
“Also recorded” adds a separate entry of the source. Like-named read-outs stand apart in the source and are kept apart here.

Experiments:
ASGPR = target: T1, ASGPR (Homo sapiens, UniProt P07306); experiment: ASGPR binding by fluorescence polarization assay (GalNac-Cy5 probe); details: for IC50: 80 nM ASGPR, 1 nM probe, 2 hr incubation
T1 construct: purchased Acro Biosystems
T1 sequence (P07306 1-291): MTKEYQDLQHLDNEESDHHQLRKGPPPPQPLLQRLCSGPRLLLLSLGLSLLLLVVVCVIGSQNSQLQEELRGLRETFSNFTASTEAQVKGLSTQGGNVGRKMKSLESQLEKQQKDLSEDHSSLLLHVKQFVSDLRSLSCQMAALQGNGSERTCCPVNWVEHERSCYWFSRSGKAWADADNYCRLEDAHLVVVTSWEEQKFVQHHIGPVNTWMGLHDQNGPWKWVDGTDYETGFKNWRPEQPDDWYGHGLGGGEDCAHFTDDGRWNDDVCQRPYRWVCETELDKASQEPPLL
Protocol: Assay Procedure: ASGPR binding was measured in black 96-well plates using a fluorescence polarization assay. A fluorescent probe consisting of a tri-GalNAc linked to Cy5 (GalNac-Cy5, depicted below) was custom synthesized. Example compounds were resuspended in DMSO and 3-fold serial dilutions were made at 100× final concentrations. Binding reactions were conducted in 100 μl final volume in 20 mM Hepes (pH 7.5) 50 mM NaCl 5 mM CaCl2 0.015% Triton X-100 1% DMSO with 80 nM ASGPR (Acro Biosystems) and 1 nM probe. Fluorescence polarization was measured using λex=620 nm, λem=688 nm on an Envision plate reader (Perkin Elmer) after 2 hr incubation time. Dose responses were conducted in duplicate and normalized to the response with DMSO (high) and 1 μM reference compound 18G (low) on each plate. IC50 values were determined by fitting to 4-parameter curves in GraphPad Prism.
Example monovalent compounds (depicted below) were assessed at 100 μM as compared to a reference compound 18G (e.g., intermediate compound 18G in Example 14) as a positive control, following the assay procedure outlined in Example 68.

HepG2 cells = experiment: Uptake of Alexa488-labelled target IgE bound to omalizumab (OMA) conjugates in HepG2 cells, flow cytometry; type: cell-based, human; details: omalizumab (anti-IgE) conjugate bound to IgE-Alexa488, equal molar ratios; 1 hour
Protocol: (§1) The omalizumab conjugates of Example 60 were bound to IgE-Alexa488 (prepared according to Example 62), as follows: equal molar ratios of omalizumab (anti-IgE) conjugate and IgE-Alexa488 were added in tissue culture media for 30 minutes at room temperature. The resulting anti-IgE conjugate:IgE antibody-Alexa488 compositions were added to HepG2 cells (100 k cells/50 ul per well, n=2), and Alexa488 fluorescence levels in the cells were measured at 1 hour by flow cytometry. As the fluorescently labelled target (IgE antibody) accumulates in cells, the fluorescence presents a way to measure total intracellular uptake by cells over time.
as §1, with “OMA Ab” for “The omalizumab”, “example compounds I-160-I-163 and I-141” for “Example 60”, “by adapting procedure in” for “according to”, “61),” for “62),”, “OMA(anti-IgE)” for “omalizumab (anti-IgE)”

[1] = trivalent compounds, dose response curves
[2] = trivalent compounds, read-out: IC50
[3] = monovalent compounds, read-out: IC50 (MM)

IC50 (ASGPR; [2]) [nM] | IC50 (ASGPR; [3]) [nM] | SMILES | other results
≤ 50 |  | O=C(O)CCCCCCCCCCC(=O)NC(COCCC(=O)NCCCCNC(=O)c1cccc(OCc2cn([C@H]3CO[C@H](CO)[C@H](O)[C@@H]3O)nn2)c1)(COCCC(=O)NCCCCNC(=O)c1cccc(OCc2cn([C@H]3CO[C@H](CO)[C@H](O)[C@@H]3O)nn2)c1)COCCC(=O)NCCCCNC(=O)c1cccc(OCc2cn([C@H]3CO[C@H](CO)[C@H](O)[C@@H]3O)nn2)c1 [1901 (I-171), 13,13-bis((3-((4-(3-((1-((3S,4R,5R,6R)-4,5-dihydroxy-6-(hydroxymethyl)tetrahydro-2H-pyran-3-yl)-1H-1,2,3-triazol-4-yl)methoxy)benzamido)butyl)amino)-3-oxopropoxy)methyl)-1-(3-((1-((3S,4R,5R,6R)-4,5-dihydroxy-6-(hydroxymethyl)tetrahydro-2H-pyran-3-yl)-1H-1,2,3-triazol-4-yl)methoxy)phenyl)-1,8,15-trioxo-11-oxa-2,7,14-triazahexacosan-26-oic acid] | ASGPR binding affinity compared to reference compound 18G / other trivalent compounds (ASGPR; [1]): comparable affinity as reference compound 18G
≤ 50 |  | O=C(O)CCCCCCCCCCC(=O)NC(COCCC(=O)NCCCCNC(=O)c1ccc(OCc2cn([C@H]3CO[C@H](CO)[C@H](O)[C@@H]3O)nn2)cc1)(COCCC(=O)NCCCCNC(=O)c1ccc(OCc2cn([C@H]3CO[C@H](CO)[C@H](O)[C@@H]3O)nn2)cc1)COCCC(=O)NCCCCNC(=O)c1ccc(OCc2cn([C@H]3CO[C@H](CO)[C@H](O)[C@@H]3O)nn2)cc1 [1902 (I-172), 13,13-bis((3-((4-(4-((1-((3S,4R,5R,6R)-4,5-dihydroxy-6-(hydroxymethyl)tetrahydro-2H-pyran-3-yl)-1H-1,2,3-triazol-4-yl)methoxy)benzamido)butyl)amino)-3-oxopropoxy)methyl)-1-(4-((1-((3S,4R,5R,6R)-4,5-dihydroxy-6-(hydroxymethyl)tetrahydro-2H-pyran-3-yl)-1H-1,2,3-triazol-4-yl)methoxy)phenyl)-1,8,15-trioxo-11-oxa-2,7,14-triazahexacosan-26-oic acid] | ASGPR binding affinity compared to reference compound 18G / other trivalent compounds (ASGPR; [1]): comparable affinity as reference compound 18G
≤ 50 | ≤ 1000 | CC(=O)N[C@H]1[C@H](OCCCCC(=O)NCCCNC(=O)CCOCC(N)(COCCC(=O)NCCCNC(=O)CCCCO[C@@H]2O[C@H](CO)[C@H](O)[C@H](O)[C@H]2NC(C)=O)COCCC(=O)NCCCNC(=O)CCCCO[C@@H]2O[C@H](CO)[C@H](O)[C@H](O)[C@H]2NC(C)=O)O[C@H](CO)[C@H](O)[C@@H]1O [Compound 18G] | 
 | 1000 to 50000 | C#CC[C@H]1O[C@H](CO)[C@H](O)[C@H](O)[C@H]1NC(C)=O [Compound 591] | ASGPR binding affinity among the tested monomers (ASGPR; monovalent compounds, dose response curves): highest affinity of the tested monomers
 | > 50000 | CC(C)(C)C(=O)N[C@H]1CO[C@H](CO)[C@H](O)[C@@H]1O [Compound 592] | 
 |  | C#CCCCO[C@H]1CO[C@H](CO)[C@H](O)[C@@H]1O [Compound 593] | binding as a percentage of the activity of reference compound 18G (ASGPR; monovalent compounds at 100 μM): < 50%
> 100 |  | O=C(O)CCCCCCCCCCC(=O)NC(CCC(=O)NCCOCCOCCn1cc(COc2nc(N[C@H]3CO[C@H](CO)[C@H](O)[C@@H]3O)cc(C(F)(F)F)n2)nn1)(CCC(=O)NCCOCCOCCn1cc(COc2nc(N[C@H]3CO[C@H](CO)[C@H](O)[C@@H]3O)cc(C(F)(F)F)n2)nn1)CCC(=O)NCCOCCOCCn1cc(COc2nc(N[C@H]3CO[C@H](CO)[C@H](O)[C@@H]3O)cc(C(F)(F)F)n2)nn1 [Compound 1920] | 
> 100 |  | CC(=O)N[C@H]1[C@H](OCCCCC(=O)NCCCNC(=O)CCOCC(COCCC(=O)NCCCNC(=O)CCCCO[C@@H]2O[C@H](CO)[C@H](O)[C@H](O)[C@H]2NC(C)=O)(COCCC(=O)NCCCNC(=O)CCCCO[C@@H]2O[C@H](CO)[C@H](O)[C@H](O)[C@H]2NC(C)=O)NC(=O)CCCCCCCCCCC(=O)O)O[C@H](CO)[C@H](O)[C@@H]1O [Compound I-124acid, reference compound] | ASGPR binding affinity compared to reference compound 18G / other trivalent compounds (ASGPR; [1]): reduced ASGPR binding affinity
 |  | CC(=O)N[C@H]1[C@H](OCCCCC(=O)NCCCNC(=O)CCOCC(COCCC(=O)NCCCNC(=O)CCCCO[C@@H]2O[C@H](CO)[C@H](O)[C@H](O)[C@H]2NC(C)=O)(COCCC(=O)NCCCNC(=O)CCCCO[C@@H]2O[C@H](CO)[C@H](O)[C@H](O)[C@H]2NC(C)=O)NC(=O)CCc2cn(CCOCCOCCOCCOCCOCCOCCOCCOCCOCCOCCOCCOCCOCCOCCOCCOCCOCCOCCOCCOCCOCCOCCOCCOCCC(=O)Oc3c(F)c(F)c(F)c(F)c3F)nn2)O[C@H](CO)[C@H](O)[C@@H]1O [Compound I-137] | relative uptake activity of Alexa488 labeled-target IgE in HepG2 cells (HepG2 cells): comparable activity to the reference conjugate; also recorded: comparable activity to a reference conjugate
 |  | CC(=O)N[C@@H]1[C@@H](O)[C@@H](O)[C@@H](CO)O[C@H]1Cc1cn(CCOCCOCCOCCNC(=O)CCC(CCC(=O)NCCOCCOCCOCCn2cc(C[C@@H]3O[C@H](CO)[C@H](O)[C@H](O)[C@H]3NC(C)=O)nn2)(CCC(=O)NCCOCCOCCOCCn2cc(C[C@@H]3O[C@H](CO)[C@H](O)[C@H](O)[C@H]3NC(C)=O)nn2)NC(=O)CCCCCCCCCCC(=O)Oc2c(F)c(F)c(F)c(F)c2F)nn1 [Compound I-140, perfluorophenyl 1-(4-(((2S,3R,4R,5R,6R)-3-acetamido-4,5-dihydroxy-6-(hydroxymethyl)tetrahydro-2H-pyran-2-yl)methyl)-1H-1,2,3-triazol-1-yl)-16,16-bis(1-(4-(((2S,3R,4R,5R,6R)-3-acetamido-4,5-dihydroxy-6-(hydroxymethyl)tetrahydro-2H-pyran-2-yl)methyl)-1H-1,2,3-triazol-1-yl)-13-oxo-3,6,9-trioxa-12-azapentadecan-15-yl)-13,18-dioxo-3,6,9-trioxa-12,17-diazanonacosan-29-oate] | relative uptake activity of Alexa488 labeled-target IgE in HepG2 cells (HepG2 cells): comparable activity to the conjugate having the 0-glycoside
 | 1000 to 50000 | O=C(O)c1cccc(OCc2cn([C@H]3CO[C@H](CO)[C@H](O)[C@@H]3O)nn2)c1 [XB20, 3-((1-((3S,4R,5R,6R)-4,5-dihydroxy-6-(hydroxymethyl)tetrahydro-2H-pyran-3-yl)-1H-1,2,3-triazol-4-yl)methoxy)benzoic acid] | 
 | 1000 to 50000 | OC[C@H]1OC[C@H](Nc2cc(C(F)(F)F)ccn2)[C@@H](O)[C@H]1O [XB23] | 
50 to 100 |  | NC(CCC(=O)NCCOCCOCCOCc1cn([C@H]2CO[C@H](CO)[C@H](O)[C@@H]2O)nn1)(CCC(=O)NCCOCCOCCOCc1cn([C@H]2CO[C@H](CO)[C@H](O)[C@@H]2O)nn1)CCC(=O)NCCOCCOCCOCc1cn([C@H]2CO[C@H](CO)[C@H](O)[C@@H]2O)nn1 [XB32, 4-amino-4-(1-(1-((3S,4R,5R,6R)-4,5-dihydroxy-6-(hydroxymethyl)tetrahydro-2H-pyran-3-yl)-1H-1,2,3-triazol-4-yl)-12-oxo-2,5,8-trioxa-11-azatetradecan-14-yl)-N1,N7-bis(2-(2-(2-((1-((3S,4R,5R,6R)-4,5-dihydroxy-6-(hydroxymethyl)tetrahydro-2H-pyran-3-yl)-1H-1,2,3-triazol-4-yl)methoxy)ethoxy)ethoxy)ethyl)heptanediamide] | ASGPR binding affinity compared to reference compound 18G / other trivalent compounds (ASGPR; [1]): comparable affinity as reference compound 18G
≤ 50 |  | NC(CCC(=O)NCCOCCOCCOCc1cn([C@H]2[C@H]3OC[C@](CO)(O3)[C@H](O)[C@@H]2O)nn1)(CCC(=O)NCCOCCOCCOCc1cn([C@H]2[C@H]3OC[C@](CO)(O3)[C@H](O)[C@@H]2O)nn1)CCC(=O)NCCOCCOCCOCc1cn([C@H]2[C@H]3OC[C@](CO)(O3)[C@H](O)[C@@H]2O)nn1 [XB40, 4-amino-4-(1-(1-((1S,2R,3R,4R,5S)-2,3-dihydroxy-1-(hydroxymethyl)-6,8-dioxabicyclo[3.2.1]octan-4-yl)-1H-1,2,3-triazol-4-yl)-12-oxo-2,5,8-trioxa-11-azatetradecan-14-yl)-N1,N7-bis(2-(2-(2-((1-((1S,2R,3R,4R,5S)-2,3-dihydroxy-1-(hydroxymethyl)-6,8-dioxabicyclo[3.2.1]octan-4-yl)-1H-1,2,3-triazol-4-yl)methoxy)ethoxy)ethoxy)ethyl)heptanediamide] | 
